# Source: ChEMBL document CHEMBL4229348, “Structure-activity relationship studies of ultra-short peptides with potent activities against fluconazole-resistant Candida albicans” (Eur J Med Chem, 2018)
# Active and inactive are the calls of the source. No cut-off for these calls is given here. Square brackets hold non-standard residues; d marks the D form. Peptide text beside a SMILES is read from it. Lys(Me2) = CN(C)CCCC[C@H](N)C(=O)O; Ala(cPr) = N[C@@H](CC1CC1)C(=O)O; tBuAla = CC(C)(C)C[C@H](N)C(=O)O; Dap = NC[C@H](N)C(=O)O
# Experiments:
# [1] = Retention time of the compound at 0.4 mM by HPLC analysis; type: physicochemical; settings: 400 µM
# [2] = test system: Candida albicans; test: Antifungal activity against fluconazole-resistant Candida albicans ATCC 64550 after overnight incubation by CLSI broth microdilution method; type: functional
# [3] = test system: Candida albicans; test: Antifungal activity against fluconazole-resistant Candida albicans ATCC 64124 after overnight incubation by CLSI broth microdilution method; type: functional
# [4] = test system: Candida albicans; test: Antifungal activity against fluconazole-resistant Candida albicans ATCC 200955 after overnight incubation by CLSI broth microdilution method; type: functional
# [5] = test system: Candida albicans; test: Antifungal activity against fluconazole-resistant Candida albicans TTSH-CALB02 after overnight incubation by CLSI broth microdilution method; type: functional
# [6] = test system: Candida albicans; test: Antifungal activity against fluconazole-resistant Candida albicans TTSH-CALB01 after overnight incubation by CLSI broth microdilution method; type: functional
# [7] = test system: Candida albicans; test: Antifungal activity against fluconazole-resistant Candida albicans ATCC MYA-573 after overnight incubation by CLSI broth microdilution method; type: functional
# [8] = test system: Candida albicans; test: Antifungal activity against fluconazole-resistant Candida albicans ATCC 96901 after overnight incubation by CLSI broth microdilution method; type: functional
# [9] = test system: Candida albicans; test: Antifungal activity against fluconazole-resistant Candida albicans NUH-K6004 after overnight incubation by CLSI broth microdilution method; type: functional
# [10] = Cytotoxicity against NHDF assessed as reduction in cell viability after 5 days by CellTiter-Glo assay; type: cell-based; settings: human, NHDF cells
# [11] = Cytotoxicity against human bone marrow cells assessed as inhibition of colony formation; type: cell-based, Bone marrow cell
# [12] = test system: Candida albicans; test: Fungistatic activity against fluconazole-resistant Candida albicans ATCC 64550 at 4 times MIC incubated for overnight flowed by replating and measured after 24 hrs; type: functional, organism-based
# [13] = test system: NHDF; test: Cytotoxicity against NHDF assessed as reduction in cell viability up to 200 uM after 5 days by CellTiter-Glo assay; type: cell-based; settings: human, 120 h
Compound,Retention_time [1],MIC [2],also measured
CC(C)C[C@@H](N)C(=O)N[C@H](CCCCN)C(=O)N[C@H](CC(C)C)C(=O)N[C@H](CCCCN)C(=O)N[C@H](CC(C)C)C(=O)N[C@H](CCCCN)C(=O)N[C@H](CC(C)C)C(=O)N[C@H](CCCCN)C(N)=O,13.8 min,3.13 µM,
CC(C)C[C@H](NC(=O)[C@H](CCCCN)NC(=O)[C@H](CC(C)C)NC(=O)[C@H](CCCCN)NC(=O)[C@H](CC(C)C)NC(=O)[C@H](CCCCN)NC(=O)[C@@H](N)CC(C)C)C(=O)N[C@@H](CCCCN)C(N)=O,13.8 min,3.13 µM,
CC[C@H](C)[C@H](N)C(=O)N[C@@H](CN)C(=O)N[C@H](C(=O)N[C@@H](CN)C(=O)N[C@H](C(=O)N[C@@H](CN)C(=O)N[C@H](C(=O)N[C@@H](CN)C(=O)N[C@H](C(N)=O)[C@@H](C)CC)[C@@H](C)CC)[C@@H](C)CC)[C@@H](C)CC (H-I[Dap]I[Dap]I[Dap]I[Dap]I-NH2),13.7 min,25 µM,
CC[C@H](C)[C@H](N)C(=O)N[C@@H](CCCCN(C)C)C(=O)N[C@H](C(=O)N[C@@H](CCCCN(C)C)C(=O)N[C@H](C(=O)N[C@@H](CCCCN(C)C)C(=O)N[C@H](C(=O)N[C@@H](CCCCN(C)C)C(N)=O)[C@@H](C)CC)[C@@H](C)CC)[C@@H](C)CC (H-I[Lys(Me2)]I[Lys(Me2)]I[Lys(Me2)]I[Lys(Me2)]-NH2),14 min,100 µM,
CC(C)C[C@H](NC(=O)[C@H](CCCCN)NC(=O)[C@@H](N)CC(C)C)C(=O)N[C@@H](CCCCN)C(N)=O (H-LKLK-NH2),11 min,> 100 µM,
CC(C)C[C@H](NC(=O)[C@H](CCCCN)NC(=O)[C@@H](N)CC(C)C)C(N)=O (H-Leu-Lys-Leu-NH2),12.1 min,> 100 µM,
CC(C)C[C@H](N)C(=O)N[C@@H](CCCCN)C(N)=O (H-Leu-Lys-NH2),2.1 min,> 100 µM,
CC(C)C[C@H](NC(=O)[C@@H](N)CCCCN)C(=O)N[C@@H](CCCCN)C(N)=O (H-Lys-Leu-Lys-NH2),2.4 min,> 100 µM,
NCCCC[C@H](NC(=O)[C@H](CC1CC1)NC(=O)[C@H](CCCCN)NC(=O)[C@H](CC1CC1)NC(=O)[C@H](CCCCN)NC(=O)[C@H](CC1CC1)NC(=O)[C@H](CCCCN)NC(=O)[C@@H](N)CC1CC1)C(N)=O (H-[Ala(cPr)]K[Ala(cPr)]K[Ala(cPr)]K[Ala(cPr)]K-NH2),12.8 min,6.25 µM,
CC(C)(C)C[C@H](NC(=O)[C@H](CCCCN)NC(=O)[C@H](CC(C)(C)C)NC(=O)[C@H](CCCCN)NC(=O)[C@H](CC(C)(C)C)NC(=O)[C@H](CCCCN)NC(=O)[C@@H](N)CC(C)(C)C)C(=O)N[C@@H](CCCCN)C(N)=O (H-[tBuAla]K[tBuAla]K[tBuAla]K[tBuAla]K-NH2),15.6 min,3.13 µM,
CC[C@H](C)[C@H](N)C(=O)N[C@@H](CCN)C(=O)N[C@H](C(=O)N[C@@H](CCN)C(=O)N[C@H](C(=O)N[C@@H](CCN)C(=O)N[C@H](C(=O)N[C@@H](CCN)C(=O)N[C@H](C(N)=O)[C@@H](C)CC)[C@@H](C)CC)[C@@H](C)CC)[C@@H](C)CC (HELM PEPTIDE1{I.[Dab].I.[Dab].I.[Dab].I.[Dab].I.[am]}$$$$V2.0),13.5 min,6.25 µM,
CC[C@H](C)[C@H](N)C(=O)N[C@@H](CCCN)C(=O)N[C@H](C(=O)N[C@@H](CCCN)C(=O)N[C@H](C(=O)N[C@@H](CCCN)C(=O)N[C@H](C(=O)N[C@@H](CCCN)C(=O)N[C@H](C(N)=O)[C@@H](C)CC)[C@@H](C)CC)[C@@H](C)CC)[C@@H](C)CC (HELM PEPTIDE1{I.[Orn].I.[Orn].I.[Orn].I.[Orn].I.[am]}$$$$V2.0),13.2 min,6.25 µM,
CC[C@H](NC(=O)[C@H](CCCCN)NC(=O)[C@H](CC)NC(=O)[C@H](CCCCN)NC(=O)[C@H](CC)NC(=O)[C@H](CCCCN)NC(=O)[C@@H](N)CC)C(=O)N[C@@H](CCCCN)C(N)=O (HELM PEPTIDE1{[Abu].K.[Abu].K.[Abu].K.[Abu].K.[am]}$$$$V2.0),6 min,> 100 µM,
CCCCCCCCCCCC(=O)N[C@H](C(=O)N[C@@H](CCCCN)C(=O)N[C@H](C(=O)N[C@@H](CCCCN)C(=O)N[C@H](C(=O)N[C@@H](CCCCN)C(=O)N[C@H](C(=O)N[C@@H](CCCCN)C(N)=O)[C@@H](C)CC)[C@@H](C)CC)[C@@H](C)CC)[C@@H](C)CC (HELM PEPTIDE1{[CCCCCCCCCCCC(=O)[*:2]].I.K.I.K.I.K.I.K.[am]}$$$$V2.0),20.8 min,> 100 µM,
CCCCCCCCCCCCCCCC(=O)N[C@H](C(=O)N[C@@H](CCCCN)C(=O)N[C@H](C(=O)N[C@@H](CCCCN)C(=O)N[C@H](C(=O)N[C@@H](CCCCN)C(=O)N[C@H](C(=O)N[C@@H](CCCCN)C(N)=O)[C@@H](C)CC)[C@@H](C)CC)[C@@H](C)CC)[C@@H](C)CC (HELM PEPTIDE1{[CCCCCCCCCCCCCCCC(=O)[*:2]].I.K.I.K.I.K.I.K.[am]}$$$$V2.0),23.5 min,> 100 µM,
NCCCC[C@H](NC(=O)[C@H](CC1CCCCC1)NC(=O)[C@H](CCCCN)NC(=O)[C@H](CC1CCCCC1)NC(=O)[C@H](CCCCN)NC(=O)[C@H](CC1CCCCC1)NC(=O)[C@H](CCCCN)NC(=O)[C@@H](N)CC1CCCCC1)C(N)=O (HELM PEPTIDE1{[Cha].K.[Cha].K.[Cha].K.[Cha].K.[am]}$$$$V2.0),17.9 min,> 100 µM,
CCC[C@H](NC(=O)[C@H](CCCCN)NC(=O)[C@H](CCC)NC(=O)[C@H](CCCCN)NC(=O)[C@H](CCC)NC(=O)[C@H](CCCCN)NC(=O)[C@@H](N)CCC)C(=O)N[C@@H](CCCCN)C(N)=O (HELM PEPTIDE1{[Nva].K.[Nva].K.[Nva].K.[Nva].K.[am]}$$$$V2.0),12 min,6.25 µM,
OC(Cn1cncn1)(Cn1cncn1)c1ccc(F)cc1F [FLUCONAZOLE],,> 100 µM,MIC [3]: > 100 µM; MIC [4]: > 100 µM; MIC [5]: > 100 µM; MIC [6]: > 100 µM; MIC [7]: > 100 µM; MIC [8]: > 100 µM; MIC [9]: > 100 µM
Clc1ccc(COC(Cn2ccnc2)c2ccc(Cl)cc2Cl)c(Cl)c1 (stereo unspecified) [MICONAZOLE],,12.5 µM,MIC [3]: 12.5 µM; MIC [4]: 12.5 µM; MIC [5]: 12.5 µM; MIC [6]: 12.5 µM; MIC [7]: 6.25 µM; MIC [8]: 6.25 µM; GI50 at 120 h [10]: 10.3 µM; GI50 [11]: 12.8 µM; Activity [12]: Active; MIC [9]: 12.5 µM
CC(O)CO (stereo unspecified) [PROPYLENE GLYCOL],,,Activity [13]: Non-Toxic
Ac-IKIKIKIK-NH2,14.3 min,12.5 µM,
H-AKAKAKAK-NH2,1.9 min,> 100 µM,
H-AKIKIKIK-NH2,12.4 min,6.25 µM,
H-EKEKEKEK-NH2,1.9 min,> 100 µM,
H-FKFKFKFK-NH2,15.2 min,6.25 µM,
H-GKGKGKGK-NH2,1.6 min,> 100 µM,
H-IAIKIKIK-NH2,13.7 min,12.5 µM,

Compound,Retention_time [1],MIC [2],also measured
H-IEIEIEIE-NH2,16.1 min,> 100 µM,
H-IIIIKKKK-NH2,12 min,12.5 µM,
H-IIKKIIKK-NH2,11.6 min,> 100 µM,
H-IK(Ac)IK(Ac)IK(Ac)IK(Ac)-NH2,22.9 min,> 100 µM,
H-IKAKIKIK-NH2,11.8 min,6.25 µM,
H-IKIAIKIK-NH2,13.8 min,12.5 µM,
H-IKIKAKIK-NH2,11.8 min,6.25 µM,
H-IKIKIAIK-NH2,13.8 min,12.5 µM,
H-IKIKIKAK-NH2,12 min,6.25 µM,
H-IKIKIKIA-NH2,13.9 min,12.5 µM,
H-IKIKIKIK-OH,13.5 min,12.5 µM,
H-ILRWPWWPWRRK-NH2 [OMIGANAN],,50 µM,
H-IRIRIRIR-NH2,13.9 min,12.5 µM,
H-KIKIKIKI-NH2,14 min,3.13 µM,
H-KKIIKKII-NH2,12.6 min,> 100 µM,
H-KKKKKKKK-NH2,2 min,> 100 µM,
H-KLKLK-NH2,11.2 min,> 100 µM,
H-KLKLKLK-NH2,12.7 min,25 µM,
H-KLKLKLKL-NH2,14.4 min,3.13 µM,
H-KLKLKLKLK-NH2,13.6 min,3.13 µM,
H-LKLKL-NH2,13.7 min,> 100 µM,
H-LKLKLK-NH2,12.8 min,100 µM,
H-LKLKLKL-NH2,14.5 min,50 µM,
H-LKLKLKLKL-NH2,15.1 min,3.13 µM,
H-LKLKLKLKLK-NH2,14.5 min,3.13 µM,
H-VKVKVKVK-NH2,11.1 min,6.25 µM,
H-WKWKWKWK-NH2,15.9 min,> 100 µM,
